Read-outs that look alike come from different tables or passages of the source.
Columns and labels:
Format in all cases: in vivo
[1] = tested on: adult German cockroaches (Blattella germanica); assay: Flushing out of German cockroaches from shelter (Experimental Example 8); conditions: 0.7 ml of 0.1% oil spray
Protocol: Ten adult German cockroaches (Blattella germanica) were liberated in a plywood-made trigonal prism like shelter with diet and water. The shelter containing cockroaches was made stand opening upward in a glass chamber (70 cm)^3, and 0.7 ml of 0.1% oil spray of each compound was applied to the chamber. The number of flushed out insects was counted with the lapse of time.

[2] = tested on: housefly adults (Musca domestica); assay: Oil spray in (70 cm)^3 glass chamber, housefly adults, KT50 and mortality (Experimental Example 2); conditions: for mortality at 0.1 %: Musca domestica
Protocol: (§1) 0.1 Part of each of the present compounds was dissolved in kerosene and made up to 100 parts with kerosene. Thus, the oil spray of each compound was obtained. Ten northern house mosquito female adults (Culex pipiens pallens) and 10 housefly adults (Musca domestica) were liberated in a (70 cm)^3 glass chamber. 0.7 ml of the oil spray was applied and the number of knocked down insects was counted with the lapse of time. The value of KT50 was obtained from the mean knock-down ratio of three replications according to Finney's graphic method. After 10 minutes, the knocked down insects were collected and transferred to a recovery container and fed with a 5% sugar solution. After 24 hours, the dead and alive were examined.

[3] = tested on: Carmine mite (Tetranychus cinnabarinus); assay: Carmine mite on potted kidney bean, damage after 10 days (Experimental Example 12); conditions: 200-fold aqueous dilution of emulsifiable concentrate of Preparation example 3, 10 ml/pot
Protocol: Carmine mite female adults (Tetranychus cinnabarinus) were made parasitic on leaves of the potted kidney bean (primordial leaf stage) which had elapsed 9 days after sowing, at a rate of 10-15/leaf, and bred at 27° C. for a week in a constant temperature room. […] At this time, a 200-fold aqueous dilute solution of each of the emulsifiable concentrates formulated from the present compounds (2), (6), (8), (9) and (13) according to Preparation example 3 was sprayed at a rate of 10 ml/pot by means of a turn table.

[4] = tested on: housefly female adults (Musca domestica); assay: Housefly female adults on treated filter paper in polyethylene cup, mortality after 48 hours (Experimental Example 1)
Protocol: Ten percent emulsifiable concentrates were prepared as in the Preparation example 3.
At the bottom of a polyethylene cup of 5.5 cm in diameter was placed a filter paper of the same size. 0.75 Ml of a 200-fold aqueous dilute solution of each emulsifiable concentrate (corresponding to 500 ppm) was dropped on the filter paper, and 30 mg of sucrose as a food was uniformly placed. Ten housefly female adults (Musca domestica) were liberated in the cup which was then covered with a lid. After 48 hours, the dead and alive were examined to obtain mortality (4 replications).

[5] = tested on: northern house mosquito female adults (Culex pipiens pallens); assay: Oil spray in (70 cm)^3 glass chamber, northern house mosquito female adults, KT50 and mortality (Experimental Example 2); conditions: for mortality at 0.1 %: Culex pipiens
Protocol: as §1

[6] = tested on: northern house mosquito female adults (Culex pipiens pallens); assay: Oil spray in (70 cm)^3 glass chamber, knock down of mosquitoes at 10 minutes (Experimental Example 3); conditions: oil sprays of Preparation example 1 (0.2 part in 100), 0.7 ml, 10 minutes after spraying, read-out: KD%
Text: Ten northern house mosquito female adults (Culex pipiens pallens) were liberated in a (70 cm)^3 glass chamber.

[7] = housefly adult, 0.1% oil spray, 0.7 ml
[8] = 200-fold aqueous dilution of emulsifiable concentrate (500 ppm), 48 hours, housefly female adults, read-out: Mortality
[9] = northern house mosquito female adult, 0.1% oil spray, 0.7 ml

## C#CCN1CC(=O)N(COC(=O)C2C(C)(C)C2(C)C)C1=O [Present compound (9), 1-Propargyl-3-hydantoinylmethyl 2,2,3,3-tetramethylcyclopropanecarboxylate]
[1]; 38"
  Flushing out: 15%
[1]; 75"
  Flushing out: 55%
[1]; 150"
  Flushing out: 60%
[1]; 300"
  Flushing out: 70%
[1]; 600"
  Flushing out: 80%
[2]; housefly adult, 0.1% oil spray, 0.7 ml, after 24 hours, read-out: Mortality
  mortality at 0.1 %: 20%
[2]; [7]
  KT50: 150 s
[3]
  damage of kidney bean by the mites: hardly any damage was observed
[4]; [8]
  mortality at 500 µg/mL: 100%
[5]; northern house mosquito female adult, 0.1% oil spray, 0.7 ml, after 24 hours, read-out: Mortality
  mortality at 0.1 %: 95%
[5]; [9]
  KT50: 35 s

## C=CCN1CC(=O)N(COC(=O)C2C(C=C(Cl)Cl)C2(C)C)C1=O (stereo not shown) [Present compound (2), 1-Allyl-3-hydantoinylmethyl 2,2-dimethyl-3-(2,2-dichlorovinyl)-cyclopropanecarboxylate]
[3]
  damage of kidney bean by the mites: hardly any damage was observed
[4]; 48 h
  mortality at 500 µg/mL: 100%
[6]
  pest or weed control at 0.2 %: 100%

## C#CCN1CC(=O)N(COC(=O)[C@@H]2[C@@H](C=C3CCCC3)C2(C)C)C1=O (relative stereo) [Present compound (8), 1-Propargyl-3-hydantoinylmethyl 2,2-dimethyl-3-cyclopentylidenemethylcyclopropanecarboxylate]
[2]; 24 h
  mortality at 0.1 %: 25%
[2]; [7]
  KT50: 150 s
[3]
  damage of kidney bean by the mites: hardly any damage was observed
[4]; 48 h
  mortality at 500 µg/mL: 100%
[5]; 24 h
  mortality at 0.1 %: 95%
[5]; [9]
  KT50: 75 s

## C#CCN1CC(=O)N(COC(=O)[C@@H]2[C@@H](C=C(F)F)C2(C)C)C1=O [Present compound (6)]
[1]; 38"
  Flushing out: 47%
[1]; 75"
  Flushing out: 74%
[1]; 150"
  Flushing out: 79%
[1]; 300"
  Flushing out: 79%
[1]; 600"
  Flushing out: 100%
[2]; 24 h
  mortality at 0.1 %: 70%
[2]; [7]
  KT50: 46 s
[3]
  damage of kidney bean by the mites: hardly any damage was observed
[4]; 48 h
  mortality at 500 µg/mL: 100%
[5]; 24 h
  mortality at 0.1 %: 100%
[5]; [9]
  KT50: 19 s

## C#CCN1CC(=O)N(COC(=O)C(c2ccc(Cl)cc2)C(C)C)C1=O (stereo not drawn) [Present compound (13), 1-Propargyl-3-hydantoinylmethyl α-(4-chlorophenyl)isovalerate]
[3]
  damage of kidney bean by the mites: hardly any damage was observed
[4]; [8]
  mortality at 500 µg/mL: 100%
[6]
  pest or weed control at 0.2 %: 90%
